Where a name gives a salt, the structure may show the parent alone.
Legend:
[1] = test system: Arabidopsis thaliana having AK454412 introduced thereinto and wild type; test: Test of sensitivity to various drugs, AK454412-introduced versus wild type Arabidopsis thaliana; assay type: in vivo; details: evaluated subjectively based on drug concentration exhibiting the effect; 0, 0.1, 1, 10, 100, 1,000 nM
Method: Therefore, similar tests were performed on compounds having various acting properties described in HRAC including these sulfonylurea-based ALS inhibitors to search for a compound that can be metabolically degraded by AK454412. Specifically, 61 compounds arbitrarily selected from all of the 25 classifications of HRAC 2020 were subjected to sensitivity examination in Arabidopsis thaliana having AK454412 introduced thereinto and wild type. The sensitivity to each of the drugs was evaluated subjectively with respect to every acting symptom.
As a result, compounds found to have a difference in the sensitivity between the wild type and the recombinant Arabidopsis thaliana are illustrated in FIGS. 10-1 to 10-4. It is noted that concentrations of the drug in respective wells of a plate shown in each photograph in FIGS. 10-1 to 10-4 are 0, 0.1, and 1 nM in the stated order in the rightward direction in an upper portion, and 10, 100, and 1,000 nM in the stated order in the rightward direction in a lower portion. Besides, the compound found to have a sensitivity difference are listed below.

CYP81A6 = details: reported so far; cited from earlier work
[2] = main metabolite of fenquinotrione in a wheat body; cited from earlier work

## CC(C)N1C(=O)c2ccccc2NS1(=O)=O [bentazone]
[1]
  approximate sensitivity difference between wild type and recombinant Arabidopsis thaliana: < 5
CYP81A6
  metabolic reactivity of CYP81A6 against the compound: exhibits metabolic reactivity

## O=C(Nc1ccc(F)cc1)c1cccc(Oc2cccc(C(F)(F)F)c2)n1 [picolinafen]
[1]
  approximate sensitivity difference between wild type and recombinant Arabidopsis thaliana: 2

## COc1cc(OC)nc(Sc2cccc(Cl)c2C(=O)O)n1 [pyrithiobac-sodium salt]
[1]
  approximate sensitivity difference between wild type and recombinant Arabidopsis thaliana: 100

## oxadiargyl
[1]
  approximate sensitivity difference between wild type and recombinant Arabidopsis thaliana: 2

## O=C1CCCC(=O)C1C(=O)c1nc2c(Cl)cccc2n(-c2ccc(O)cc2)c1=O [demethylated product of fenquinotrione]
[2]
  herbicidal activity: does not exhibit herbicidal activity

## COC(=O)c1ccccc1S(=O)(=O)NC(=O)Nc1nc(C)cc(C)n1 [sulfometuron-methyl]
[1]
  approximate sensitivity difference between wild type and recombinant Arabidopsis thaliana: 5

## COc1cc(OC)nc(Oc2cccc(Oc3nc(OC)cc(OC)n3)c2C(=O)[O-])n1.[Na+] [Bispyribac-sodium salt, bispyribac-sodium salt]
[1]
  approximate sensitivity difference between wild type and recombinant Arabidopsis thaliana: < 5

## CO/N=C(/C)c1cccc(Oc2nc(OC)cc(OC)n2)c1C(=O)OC [pyriminobac-methyl]
CYP81A6
  metabolic reactivity of CYP81A6 against the compound: exhibits metabolic reactivity

## CC(C)C1(C)N=C(c2nc3ccccc3cc2C(=O)O)NC1=O (centres unmarked) [imazaquin]
[1]
  approximate sensitivity difference between wild type and recombinant Arabidopsis thaliana: ≤ 10

## COC(=O)c1ccccc1CS(=O)(=O)NC(=O)Nc1nc(OC)cc(OC)n1 [bensulfuron-methyl]
[1]
  approximate sensitivity difference between wild type and recombinant Arabidopsis thaliana: 10
CYP81A6
  metabolic reactivity of CYP81A6 against the compound: exhibits metabolic reactivity

## CNc1cnn(-c2cccc(C(F)(F)F)c2)c(=O)c1Cl [norflurazon]
[1]
  approximate sensitivity difference between wild type and recombinant Arabidopsis thaliana: 2

## CCC(CC)Nc1c([N+](=O)[O-])cc(C)c(C)c1[N+](=O)[O-] [pendimethalin]
[1]
  approximate sensitivity difference between wild type and recombinant Arabidopsis thaliana: < 100

## CCOC(=O)COc1cc(-c2nn(C)c(OC(F)F)c2Cl)c(F)cc1Cl [pyraflufen-ethyl]
[1]
  approximate sensitivity difference between wild type and recombinant Arabidopsis thaliana: 10

## COCc1cccc(C(O)c2nc(OC)cc(OC)n2)c1NS(=O)(=O)C(F)F (centres unmarked) [pyrimisulfan]
[1]
  approximate sensitivity difference between wild type and recombinant Arabidopsis thaliana: 100
CYP81A6
  metabolic reactivity of CYP81A6 against the compound: exhibits metabolic reactivity

## O=C(Nc1ccc(F)cc1F)c1cccnc1Oc1cccc(C(F)(F)F)c1 [diflufenican]
[1]
  approximate sensitivity difference between wild type and recombinant Arabidopsis thaliana: 2

## Cc1nn(-c2cc(NS(C)(=O)=O)c(Cl)cc2Cl)c(=O)n1C(F)F [sulfentrazone]
[1]
  approximate sensitivity difference between wild type and recombinant Arabidopsis thaliana: 10

## fluridone
[1]
  approximate sensitivity difference between wild type and recombinant Arabidopsis thaliana: 2

## COc1cnc(OC)n2nc(NS(=O)(=O)c3c(OCC(F)F)cccc3C(F)(F)F)nc12 [penoxsulam]
[1]
  approximate sensitivity difference between wild type and recombinant Arabidopsis thaliana: 100

## CS(=O)(=O)NC(=O)c1cc(Oc2ccc(C(F)(F)F)cc2Cl)ccc1[N+](=O)[O-] [fomesafen]
[1]
  approximate sensitivity difference between wild type and recombinant Arabidopsis thaliana: 3

## COC(=O)NS(=O)(=O)c1ccc(N)cc1 [asulam]
[1]
  approximate sensitivity difference between wild type and recombinant Arabidopsis thaliana: < 10
